From PMC10064984, “Anti-cyclooxygenase, anti-glycation, and anti-skin aging effect of Dendrobium officinale flowers’ aqueous extract and its phytochemical validation in aging” (Frontiers in Immunology, 2023)
“And” between values parts separate entries of the source, which are not always exact repeats. Identical values can stand only once. Like-named read-outs stand apart in the source and are kept apart here.

Experiments:
Assay type in all cases: biochemical
[1] = FRAP total antioxidant capacity; conditions: lower part of sheet (compound series);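 note: colourimetric FRAP kit assay read as absorbance in 96-well plates, values as mM FeSO4 via standard curve, EC1 being sample concentration matching 1.0 mmol/L FeSO4, Trolox positive control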
DPPH· scavenging = conditions: mean ± SD, n = 3
[2] = Fluorescent AGEs formation in a BSA-fructose/glucose system; conditions: mean ± SD, n = 3; read-out: BSA-glycation IC50
Procedure, shortened: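 Fluorescent AGE inhibition was measured in triplicate, correcting sample and control fluorescence for BSA-free blanks. Glycation used BSA incubated with D-fructose and D-glucose, with samples dissolved in DMSO:water (1:4).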

[3] = ABTS·+ decolourisation capacity; conditions: for IC50: mean ± SD, n = 3; for ABTS scavenging rate: 0.5mM series, replicate wells, listed as T19
Procedure, shortened: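 IC50 values were derived graphically from dose-inhibition curves, with % inhibition calculated versus a buffer-only (0.2 M phosphate, pH 7.4) control. Each sample (200 μl) reacted for 10 min with 100 μl ABTS·+ reagent pre-set to A729 0.8 ± 0.05, then absorbance at 729 nm was measured in triplicate.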

COX-2 = target: T1, COX-2 (Homo sapiens, UniProt P35354); experiment: Anti-COX-2 assay (COX-2 Inhibitor Screening Kit)
T1 construct: purchased Beyotime S0168
T1 sequence (P35354 18-604): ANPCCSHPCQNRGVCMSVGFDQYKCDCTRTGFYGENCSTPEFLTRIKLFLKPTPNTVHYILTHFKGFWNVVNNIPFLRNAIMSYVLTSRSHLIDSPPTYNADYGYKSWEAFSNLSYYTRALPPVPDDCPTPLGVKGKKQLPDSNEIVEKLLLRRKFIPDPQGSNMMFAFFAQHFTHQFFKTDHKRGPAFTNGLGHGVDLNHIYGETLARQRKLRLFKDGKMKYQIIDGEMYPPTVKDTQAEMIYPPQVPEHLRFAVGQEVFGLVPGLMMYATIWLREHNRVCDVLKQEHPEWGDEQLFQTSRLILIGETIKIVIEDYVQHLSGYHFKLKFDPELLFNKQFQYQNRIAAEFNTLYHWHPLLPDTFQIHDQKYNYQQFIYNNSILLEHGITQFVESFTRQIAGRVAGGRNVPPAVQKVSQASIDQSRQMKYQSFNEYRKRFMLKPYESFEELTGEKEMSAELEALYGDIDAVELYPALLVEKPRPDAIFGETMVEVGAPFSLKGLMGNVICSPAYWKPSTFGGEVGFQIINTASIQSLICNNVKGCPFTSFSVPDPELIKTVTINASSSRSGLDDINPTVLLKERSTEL

Molecule: Vicenin-3 [compound 19]
- FRAP EC1 [1]: >5000 µM
- IC50 (DPPH· scavenging): > 5000 µM
- IC50 [2]: 243 ± 12 µM
- IC50 [3]: 74.8 ± 0.92 µM
- COX-2 inhibition (in words) (COX-2): no inhibitory effects
- COX-2 inhibition (COX-2; 31.25 μM, single replicates, listed as T8, 31.25 µM): -27.09% and -25.76% and -19.42%
- COX-2 inhibition (COX-2; 62.5 μM, single replicates, listed as T8, 62.5 µM): -19.03% and -34.16% and -24.78%
- COX-2 inhibition (COX-2; 125 μM, single replicates, listed as T8, 125 µM): -26.82% and -40.95% and -33.02%
- COX-2 inhibition (COX-2; 250 μM, single replicates, listed as T8, 250 µM): -32.94% and -46.72% and -42.57%
- COX-2 inhibition (COX-2; 500 μM, single replicates, listed as T8, 500 µM): -35.30% and -54.98% and -48.28%
- COX-2 inhibition (COX-2; 1000 μM, single replicates, listed as T8, 1000 µM): -23.28% and -61.50% and -50.44%
- COX-2 inhibition (COX-2; 2000 μM (2mM), single replicates, listed as T8): -50.77% and -55.05% and -54.78%

Molecule: O=c1cc(-c2ccc(O)c(O)c2)oc2c(C3OCC(O)C(O)C3O)c(O)c(C3OC(CO)C(O)C(O)C3O)c(O)c12 [compound 15, Luteolin-6-C-β-D-glucoside-8-C-β-D-xyloside]
- FRAP EC1 [1]: 1100.3 ± 138.4 µM
- IC50 (DPPH· scavenging): 145 ± 51.4 µM
- IC50 [2]: 294 ± 13.3 µM
- ABTS scavenging rate ([3]; concentration 7.8125 (unit not given)): 33.84% and 32.82% and 31.57%
- ABTS scavenging rate ([3]; concentration 15.625 (unit not given)): 51.02% and 51.43% and 45.77%
- ABTS scavenging rate ([3]; concentration 31.25 (unit not given)): 80.79% and 81.13% and 77.35%
- ABTS scavenging rate ([3]; concentration 62.5 (unit not given)): 99.45% and 99.39% and 98.61%
- ABTS scavenging rate ([3]; concentration 125 (unit not given)): 99.58% and 99.48% and 99.50%
- ABTS scavenging rate ([3]; concentration 250 (unit not given)): 99.61% and 99.60% and 99.48%
- ABTS scavenging rate ([3]; concentration 500 (unit not given)): 99.69% (2×) and 99.56%
- IC50 [3]: 13.8 ± 0.82 µM
- COX-2 inhibition (in words) (COX-2): great COX-2 inhibition
- inhibition at 3.125 µM (COX-2; 3.125 μM, single replicates): 14.6%
- COX-2 inhibition (COX-2; 3.125 μM, single replicates, listed as T19, 3.125 µM): 14.16% and 11.51%
- inhibition at 6.25 µM (COX-2; 6.25 μM, single replicates): 39.3%
- COX-2 inhibition (COX-2; 6.25 μM, single replicates, listed as T19, 6.25 µM): 23.77% and 25.81%
- inhibition at 12.5 µM (COX-2; 12.5 μM, single replicates): 60.5%
- COX-2 inhibition (COX-2; 12.5 μM, single replicates, listed as T19, 12.5 µM): 53.05% and 54.30%
- inhibition at 25 µM (COX-2; 25 μM, single replicates): 71.9%
- COX-2 inhibition (COX-2; 25 μM, single replicates, listed as T19, 25 µM): 68.96% and 71.63%
- inhibition at 50 µM (COX-2; 50 μM, single replicates): 75.8%
- COX-2 inhibition (COX-2; 50 μM, single replicates, listed as T19, 50 µM): 74.58% and 74.45%
- inhibition at 100 µM (COX-2; 100 μM, single replicates): 83.1%
- COX-2 inhibition (COX-2; 100 μM, single replicates, listed as T19, 100 µM): 75.76% and 77.02%
- inhibition at 200 µM (COX-2; 200 μM, single replicates): 80.8%
- COX-2 inhibition (COX-2; 200 μM, single replicates, listed as T19, 200 µM): 78.95% and 81.08%
- IC50 (COX-2; mean ± SD, n = 3, nd, not detected, read-out: COX-2 IC50): 13.9 ± 2.4 µM
- IC50 (COX-2; supplement sheet COX, read-out: COX-2 IC50, single replicate): 11.2 µM and 15.8 µM and 14.8 µM
